Results on 47 molecules are retold here after patent US7897543B2, “Spiroketal-substituted cyclic ketoenols” (Bayer CropScience AG, priority 2005, dated 2011).

A short description of series [1]: log P determination by HPLC/LC-MS retention times, calibration with alkan-2-ones. Particulars: for log P: HPLC on reversed-phase column (C 18), 43° C., EEC Directive 79/831 Annex V.A8. Type of series: physicochemical. As to the method: In the acidic range, the determination is carried out at pH 2.3 using 0.1% aqueous phosphoric acid and acetonitrile as mobile phases; linear gradient from 10% acetonitrile to 95% acetonitrile.
The determination by LC-MS in the acidic range is carried out at pH 2.7 using 0.1% aqueous formic acid and acetonitrile (comprises 0.1% formic acid) as mobile phases; linear gradient from 10% acetonitrile to 95% acetonitrile.
The determination by LC-MS in the neutral range is carried out at pH 7.8 using 0.001 molar aqueous ammonium bicarbonate solution and acetonitrile as mobile phases; linear gradient from 10% acetonitrile to 95% acetonitrile.
Calibration is carried out using unbranched alkan-2-ones (having 3 to 16 carbon atoms) with known log P values (determination of the log P values by the retention times using linear interpolation between two successive alkanones).

Series [2] deals with Phaedon cochleariae. The experiment in a line: Example N: Phaedon Test (spray treatment). The series is classed as in vivo. Particulars: application rate 500 g/ha. On the procedure: [table] To produce a suitable preparation of active compound, 1 part by weight of active compound is mixed with the stated amounts of solvents and emulsifier, and the concentrate is diluted with emulsifier-containing water to the desired concentration. Discs of Chinese cabbage (Brassica pekinensis) are sprayed with a preparation of active compound of the desired concentration and, after drying, populated with larvae of the mustard beetle (Phaedon cochleariae).

Series [3] relates to Test plants. The experiment in a line: Example U: Pre-emergence Test. Type of series: in vivo. The following applies: greenhouse, 250 g of a.i./ha, after three weeks. As to the method: To produce a suitable preparation of active compound, 1 part by weight of active compound is mixed with the stated amount of solvent, the stated amount of emulsifier is added and the concentrate is diluted with water to the desired concentration.
Seeds of the test plants are sown in normal soil. After about 24 hours, the soil is sprayed with the preparation of active compound such that the particular amounts of active compound desired are applied per unit area. The concentration of the spray liquor is chosen such that the particular amounts of active compound desired are applied in 1000 l of water/ha.
After three weeks, the degree of damage to the plants is rated in % damage in comparison to the development of the untreated control.
The figures denote: • 0%=no effect (like untreated control) • 100%=total destruction

Marks after values point to notes of the source that are not given here.

In the case of `CCc1cc(C)cc(C)c1CC(=O)NC1(C(=O)OC)CCC2(CC1)OCCO2` [II-8], in series [1], the “log P” value is “wax log P 2.95*”.

Turning to `CCc1cc(C)cc(Br)c1CC(=O)NC1(C(=O)OC)CCC2(CC1)OCCO2` [II-36], in series [1], the “log P” value was “log P 3.04*”.

`COC(=O)C1(NC(=O)Cc2cc(-c3ccc(Cl)cc3)ccc2C)CCC2(CC1)OCCO2` [II-31]: in series [1], the “log P” value is “log P 3.47*”. As to `Cc1ccc(C)c(C2=C(O)C3(CCC4(CC3)OCC(C)(C)CO4)NC2=O)c1` [Ex. I-1-a-61], in series [2], the activity in % worked out at 100%. `Cc1ccc(-c2ccc(Cl)cc2)cc1C1=C(O)C2(CCC3(CC2)OCCC(C)O3)NC1=O` (mixture of isomers) [Ex. I-1-a-66]: in series [2], the activity in % turned out to be 100%.

Consider `Cc1ccc(C)c(C2=C(O)C3(CCC4(CC3)OCCO4)NC2=O)c1` [Ex. I-1-a-68], for which the activity in % in series [2] was determined as 100%. `CCc1cc(Br)cc(C)c1C1=C(O)C2(CCC3(CC2)OC(C)CC(C)O3)NC1=O` (mixture of isomers) [Ex. I-1-a-63] yielded an activity in % in series [2] of 100%. The molecule `COCC1COC2(CCCC3(C2)NC(=O)C(c2c(C)cc(C)cc2C)=C3O)O1` (mixture of isomers) [Ex. I-1-a-71] came in with an activity in % in series [2] of 100%.

Molecule `Cc1ccc(-c2ccc(Cl)cc2)c(C)c1C1=C(O)C2(CCC3(CC2)OCC(C)O3)NC1=O` (mixture of isomers) [Ex. I-1-a-51] showed an activity in % in series [2] of 100%. Still for that read-out and setting: the result for `Cc1cc(C)c(C2=C(O)C3(CCC4(CC3)OC(C)C(C)O4)NC2=O)c(C)c1` (mixture of isomers) [Ex. I-1-a-10] reads 100%; that for `CCOC(=O)OC1=C(c2c(C)cc(C)cc2OC)C(=O)NC12CCC1(CC2)OCCCO1` [Ex. I-1-c-34], 100%; that for `Cc1cc(Br)cc(C)c1C1=C(O)C2(CCC3(CC2)OC(C)C(C)O3)NC1=O` (mixture of isomers) [Ex. I-1-a-46], 100%.

Molecule `CCc1cc(Br)cc(C)c1C1=C(O)C2(CCC3(CC2)OCCO3)NC1=O` [Ex. I-1-a-39] gave an activity in % in series [2] of 100%.

In turn, `Cc1cc(Br)cc(C)c1C1=C(O)C2(CCC3(CC2)OC(C)CC(C)O3)NC1=O` (mixture of isomers) [Ex. I-1-a-56] had an activity in % in series [2] of 100%.

For `CCc1cc(Br)cc(C)c1C1=C(O)C2(CCC3(CC2)OCC(C)O3)NC1=O` (mixture of isomers) [Ex. I-1-a-53], the activity in % in series [2] worked out at 100%. With `COC(=O)C1(NC(=O)Cc2c(C)cc(C)cc2OC)CCC2(CC1)OCCCO2` [II-24], the “log P” value in series [1] is listed as “log P 2.49*”. Consider `CCc1cc(Br)cc(C)c1CC(=O)NC1(C(=O)OC)CCC2(CC1)OCCO2` [II-9], for which the “log P” value in series [1] is “wax log P 3.19*”.

In turn, `Cc1cc(Br)cc(C)c1C1=C(O)C2(CCC3(CC2)OCC(C)O3)NC1=O` (mixture of isomers) [Ex. I-1-a-47] yielded an activity in % in series [2] of 100%.

In turn, `Cc1cc(Br)cc(C)c1C1=C(O)C2(CCC3(CC2)OCC(C)(C)CO3)NC1=O` [Ex. I-1-a-33] yielded an activity in % in series [2] of 100%. Usually chromatographic logP stands for lipophilicity estimated from chromatographic retention. A high value points to higher lipophilicity. In the case of `CCCC1COC2(CCC3(CC2)NC(=O)C(c2c(C)cc(C)cc2C)=C3O)O1` (centres unmarked) [Ex. I-1-a-8], the chromatographic logP in series [1] (HPLC/LC-MS retention times, printed in the Isomer column of the (I-1-a) table) is 2.73. Besides, in series [2], the activity in % came to 100%. Consider `CC1(C)COC2(CCC3(CC2)NC(=O)C(c2cc(-c4ccc(Cl)cc4)ccc2Cl)=C3O)OC1` [Ex. I-1-a-64], for which the activity in % in series [2] came to 100%. The molecule `COc1cc(C)cc(C)c1C1=C(O)C2(CCC3(CC2)OCCCO3)NC1=O` [Ex. I-1-a-24] showed an activity in % in series [2] of 100%. With `Cc1cc(Cl)cc(Cl)c1C1=C(O)C2(CCC3(CC2)OCCCO3)NC1=O` [Ex. I-1-a-11], in series [3] (sub-table 2), the “damage, Alopecurus” value turned out to be 90%; the “damage, Avena fatua” value came to 70%; the “damage, Echinochloa” value is given as 80%; the “damage, Setaria” value is reported as 90%. Also, in series [3] (sub-table 4), the “damage, Alopecurus” value was 80%; the “damage, Echinochloa” value is recorded as 80%; the “damage, Setaria” value amounted to 100%. As for `Cc1ccc(-c2ccc(Cl)cc2)cc1C1=C(O)C2(CCC3(CC2)OC(C)C(C)O3)NC1=O` (mixture of isomers) [Ex. I-1-a-54], the activity in % in series [2] is 100%.

Take `COC(=O)C1(NC(=O)Cc2c(C)cc(C)cc2C)CCC2(CC1)OCCO2` [II-2]: the “log P” value in series [1] is listed as “log P 2.68”. The molecule `CCc1cc(Br)cc(C)c1C1=C(O)C2(CCC3(CC2)OC(C)C(C)O3)NC1=O` (mixture of isomers) [Ex. I-1-a-45] had an activity in % in series [2] of 100%.

Turning to `Cc1cc(Cl)cc(C)c1C1=C(O)C2(CCC3(CC2)OC(C)C(C)O3)NC1=O` (mixture of isomers) [Ex. I-1-a-30], in series [2], the activity in % was 100%.

As for `Cc1cc(Cl)cc(C)c1C1=C(O)C2(CCC3(CC2)OCC(C)(C)CO3)NC1=O` [Ex. I-1-a-20], in series [2], the activity in % was 100%. The same measure, in the same setting: as for `Cc1cc(Br)cc(C)c1C1=C(O)C2(CCC3(CC2)OCC(C)CO3)NC1=O` (mixture of isomers) [Ex. I-1-a-32], the figure is 100%. Take `Cc1cc(Cl)cc(C)c1C1=C(O)C2(CCC3(CC2)OCCCO3)NC1=O` [Ex. I-1-a-14]: the “damage, Sugar beet” value in series [3] (crop plant, sub-table 3) was determined as 0%. In series [3] (sub-table 3), the “damage, Alopecurus” value was 95%; the “damage, Avena fatua” value is recorded as 80%; the “damage, Echinochloa” value is on record as 80%; the “damage, Setaria” value is reported as 90%. The molecule `Cc1cc(Cl)cc(C)c1C1=C(O)C2(CCC3(CC2)OCC(C)CO3)NC1=O` (mixture of isomers) [Ex. I-1-a-34] showed an activity in % in series [2] of 100%. As to `CCc1cc(C)cc(CC)c1CC(=O)NC1(C(=O)OC)CCC2(CC1)OCCO2` [II-32], the “log P” value in series [1] was “log P 3.28*”. For `Cc1cc(Cl)cc(C)c1C1=C(O)C2(CCC3(CC2)OC(C)CC(C)O3)NC1=O` (mixture of isomers) [Ex. I-1-a-38], the activity in % in series [2] is 100%. For `CCOC(=O)OC1=C(c2c(C)cc(Cl)cc2Cl)C(=O)NC12CCC1(CC2)OCCO1` [Ex. I-1-c-4], in series [3] (sub-table 2), the “damage, Alopecurus” value came to 80%; the “damage, Echinochloa” value is 90%; the “damage, Setaria” value is recorded as 99%; the “damage, Sinapis” value was found to be 80%. `CC1COC2(CCC3(CC2)NC(=O)C(c2cc(-c4ccc(Cl)cc4)ccc2Cl)=C3O)OC1` (mixture of isomers) [Ex. I-1-a-65] yielded an activity in % in series [2] of 100%. What is called logP is a log measure of how a compound divides between an organic and an aqueous phase. For `CCCC1COC2(CCC3(CC2)NC(=O)C(c2c(C)cc(C)cc2C)=C3O)O1` (single isomer, unassigned) [Ex. I-1-a-9], the logP in series [1] (printed in the Isomer column of the (I-1-a) table) came to 2.78. For the same molecule, the activity in % in series [2] was 100%. The molecule `Cc1ccc(-c2ccc(Cl)cc2)cc1C1=C(O)C2(CCC3(CC2)OCC(C)O3)NC1=O` (mixture of isomers) [Ex. I-1-a-52] displayed an activity in % in series [2] of 100%. In series [2], `Cc1ccc(-c2ccc(Cl)cc2)cc1C1=C(O)C2(CCC3(CC2)OCC(C)(C)CO3)NC1=O` [Ex. I-1-a-67] had an activity in % of 100%. Consider `CCOC(=O)OC1=C(c2cc(C)ccc2C)C(=O)NC12CCC1(CC2)OCC(C)O1` (mixture of isomers) [Ex. I-1-c-19], for which, in series [2], the activity in % is listed as 100%. Turning to `Cc1ccc(-c2ccc(Cl)cc2)cc1C1=C(O)C2(CCC3(CC2)OCCCO3)NC1=O` [Ex. I-1-a-16], the activity in % in series [2] was 100%. `Cc1ccc(-c2ccc(Cl)cc2)cc1C1=C(O)C2(CCC3(CC2)OCCO3)NC1=O` [Ex. I-1-a-27] registered an activity in % in series [2] of 100%. Consider `COC(=O)C1(NC(=O)Cc2cc(C)c(C)cc2C)CCC2(CC1)OCCCO2` [II-17], for which the “log P” value in series [1] is given as “log P 2.59*”.

On to `COc1cc(C)cc(C)c1C1=C(O)C2(CCC3(CC2)OCCO3)NC1=O` [Ex. I-1-a-43], for which the activity in % in series [2] is on record as 100%. Regarding `CCOC(=O)OC1=C(c2cc(-c3ccc(Cl)cc3)ccc2C)C(=O)NC12CCC1(CC2)OCCCO1` [Ex. I-1-c-31], the activity in % in series [2] was determined as 100%.

As to `COC(=O)C1(NC(=O)Cc2c(C)cc(Br)cc2C)CCC2(CC1)OCCO2` [II-7], the “log P” value in series [1] is recorded as “wax log P 2.81*”. With `Cc1cc(Cl)cc(C)c1C1=C(O)C2(CCC3(CC2)OCC(C)O3)NC1=O` (mixture of isomers) [Ex. I-1-a-31], in series [2], the activity in % is reported as 100%.

In series [2], `O=C1NC2(CCC3(CC2)OCCO3)C(O)=C1c1cc(-c2ccc(Cl)cc2)ccc1Cl` [Ex. I-1-a-49] displayed an activity in % of 100%.
